# Where two headings read alike, the source gives them in different places. Positions of bridges follow the written chain, without caps; N, C: chain ends. Residues, ends and D or L forms follow the SMILES beside them.
# How the values were obtained:
# [1] = system: herpes simplex virus type 1 (HSV-1) using the KOS strain; experiment: Anti-HSV assay, inhibition of virus-induced cytopathic effect in Vero cells; type: cell-based; settings: HSV-1 KOS, 72 hours at 37°C
# Description: (§1) The in vitro antiviral activity of BU-4724V was assessed against the herpes simplex virus type 1 (HSV-1) using the KOS strain. The assay was done according to the reported protocol of C. McLaren et al. in Antiviral Research, 3, 223-234, (1986) with minor modification. Briefly, 50 µl of Eagle's MEM medium containing BU-4724V and then 200 µl of the Vero cell suspension (2 X 10⁴ cells/200 µl) were added to a well of a 96-well microtiter plate. To the well, 50µl of medium containing approximately 30 times of the 50% tissue culture infectious dose (50% TCID) of virus was added. In a parallel experiment, the same set of cells without virus infection was prepared, which was for the determination of cytotoxicity of the sample. After 72 hours incubation at 37°C, the inhibition degree of virus-induced cytopathic effect and cytotoxicity by the sample were determined, respectively. The ID₅₀ is expressed as the concentration of a compound showing 50% growth inhibition of the cytopathic effect and the TD₅₀ as the concentration of a compound showing 50% growth inhibition of the cells in the absence of virus. Acyclovir was used as the reference compound for anti-HSV activity in the assay.
# Vero cell = experiment: Cytotoxicity in Vero cells without virus infection; type: cell-based; settings: Vero cells in the absence of virus, 72 hours at 37°C
# Description: as §1
# HIV-1 IIIb = experiment: XTT anti-HIV assay in CEM-SS cells; type: cell-based, human immunodeficiency virus; settings: HIV-1 IIIb strain, read-out: IC₅₀
# Description: (§2) The antiviral effect is expressed as the inhibitory concentration of a compound which reduces the number of viruses of the infected culture to 50% of that of the drug - untreated, control culture (IC₅₀). The cytotoxicity is expressed as the concentration of a compound which yields 50% of the number of viable cells of the untreated control cultures (IC₅₀). In this assay, 2',3'-Dideoxyinosine (ddI, Videx®) was also tested for anti-HIV activity.
# S. typhi 901 = type: cell-based; settings: 901, 18 h, pH 7
# HIV-2 CBL-20 = experiment: XTT anti-HIV assay in CEM-SS cells; type: cell-based, human immunodeficiency virus; settings: HIV-2 CBL-20 strain, read-out: IC₅₀
# Description: The CEM-SS cells were obtained from Peter Nara, AIDS Research and Reference Program, Division of AIDS, NIAID, NIH.
# as §2
# CEM-SS cells [2] = experiment: Cytotoxicity in CEM-SS cells (XTT assay); type: cell-based; settings: result in words
# Description: as §2
# [3] = Cytotoxicity in CEM-SS cells (XTT assay); type: cell-based; settings: human, 50% of viable cells of untreated control, read-out: cytotoxicity IC₅₀
# Description: as §2
# HIV-1 RF = experiment: XTT anti-HIV assay in CEM-SS cells; type: cell-based, human immunodeficiency virus; settings: HIV-1 RF strain, read-out: IC₅₀
# Description: as §2
# CEM-SS cells [4] = system: CEM-SS cells
# Description: as §2
# [5] = system: human immunodeficiency virus; experiment: XTT anti-HIV assay in CEM-SS cells (strain not stated); type: cell-based; settings: Human immunodeficiency virus 1, anti-HIV activity, read-out: IC₅₀
Compound,ID₅₀ [1],TD₅₀ (Vero cell),IC50 (HIV-1 IIIb),MIC (S. typhi 901),solubility (in alkaline water),"solubility (in dimethyl sulfoxide, dimethylformamide, methanol and ethanol)","solubility (in water, ethyl acetate, chloroform, benzene, n-hexane and petroleum ether)",IC50 (HIV-2 CBL-20),cytotoxicity (CEM-SS cells [2]),CC50 [3],IC50 (HIV-1 RF),cytotoxicity (CEM-SS cells [4]),IC50 [5]
Nc1nc2c(ncn2COCCO)c(=O)[nH]1 [Acyclovir],0.28 µg/mL,>100 µg/mL,–,–,–,–,–,–,–,–,–,–,–
"CC[C@H](C)[C@@H]1NC(=O)[C@H](C)NC(=O)[C@H](Cc2ccc(O)cc2)NC(=O)CNC(=O)[C@@H]2CSSC[C@@H]3NC(=O)C[C@H](NC(=O)[C@H](CC(N)=O)NC(=O)[C@H](CSSC[C@@H](C(=O)N[C@@H](Cc4ccccc4)C(=O)N[C@@H](Cc4c[nH]c5ccccc45)C(=O)O)NC(=O)[C@H](C(C)C)NC1=O)NC(=O)[C@H](CO)NC(=O)CNC(=O)[C@H](C(C)C)NC(=O)CNC(=O)[C@H](CC(C)C)NC3=O)C(=O)N[C@@H](Cc1ccccc1)C(=O)N[C@@H](C)C(=O)NCC(=O)N2 [BU-4724V] (CLGVGSCNDFAGCGYAIVCFW-OH; disulfide 1-13, 7-19; lactam N-9; C-terminus assumed)",48 µg/mL,>100 µg/mL,460 nM,>100 µg/mL,slightly soluble,soluble,insoluble,230 nM,very weak cytotoxicity,~150000 nM,90 to 600 nM,–,–
"O=c1[nH]cnc2c1ncn2[C@H]1CC[C@@H](CO)O1 [ddI, 2',3'-Dideoxyinosine]",–,–,–,–,–,–,–,–,–,–,–,very weak cytotoxicity,1000 to 2000 nM

# Reference: patent EP0603031A2, “Antiviral antibiotic BU-4724V and preparation thereof” (Bristol-Myers Squibb Company, priority 1992, dated 1994)
